Activity calls are given as the source filed them.

Assay [1] deals with Glyceraldehyde-3-phosphate dehydrogenase (Homo sapiens, UniProt P04406).
Assay [2] concerns the target T1, Alkaline phosphatase, tissue-nonspecific isozyme (Homo sapiens, UniProt P05186).
T1 sequence (P05186 whole entry): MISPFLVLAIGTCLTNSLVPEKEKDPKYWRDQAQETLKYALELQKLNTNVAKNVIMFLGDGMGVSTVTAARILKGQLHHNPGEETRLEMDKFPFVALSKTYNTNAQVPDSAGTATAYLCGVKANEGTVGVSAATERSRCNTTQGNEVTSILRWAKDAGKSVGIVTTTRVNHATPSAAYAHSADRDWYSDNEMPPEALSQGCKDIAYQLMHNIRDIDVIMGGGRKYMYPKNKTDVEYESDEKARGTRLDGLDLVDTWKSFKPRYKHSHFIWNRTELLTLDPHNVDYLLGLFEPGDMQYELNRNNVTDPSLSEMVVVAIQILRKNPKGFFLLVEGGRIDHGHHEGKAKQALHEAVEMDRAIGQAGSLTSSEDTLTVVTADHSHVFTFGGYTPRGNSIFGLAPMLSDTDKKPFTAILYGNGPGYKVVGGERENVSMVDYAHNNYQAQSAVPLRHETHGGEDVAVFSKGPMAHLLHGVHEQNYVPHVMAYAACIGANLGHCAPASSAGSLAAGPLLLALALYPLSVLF
Briefly: human TNAP enzyme inhibitors, SAR follow-up, biochemical, luminescent, dose response (AID 1056).

A short description of assay [3]: growth suppression of PTEN-null colon cells, dose response, cell-based, HCT116 PTEN knockout (AID 1047).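 Further: HCT116 colon tumor cells with PTEN knocked out; cells exposed to compound for 60 hours before readout; potency for loss of cell viability measured by luminescence.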 The format is functional.
Assay [4] is described as follows: growth suppression of beta-catenin-knockout colon cells, dose response, cell-based, HCT116, human colon tumor (AID 1045).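 Further: HCT116 colon tumor cells with beta catenin knocked out; cells exposed to compound for 60 hours.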 The class given is functional.
Assay [5] is described as follows: Luminescence Cell-Based Dose Retest to Confirm Inhibitors of Cancer Stem Cells. [Related pubchem assays (depositor defined):AID2717, AID2721]. The class given is functional. The conditions noted are these: Homo sapiens.
Assay [6] has as its target T2, Microphthalmia-associated transcription factor (Homo sapiens, UniProt O75030).
T2 sequence (O75030 whole entry): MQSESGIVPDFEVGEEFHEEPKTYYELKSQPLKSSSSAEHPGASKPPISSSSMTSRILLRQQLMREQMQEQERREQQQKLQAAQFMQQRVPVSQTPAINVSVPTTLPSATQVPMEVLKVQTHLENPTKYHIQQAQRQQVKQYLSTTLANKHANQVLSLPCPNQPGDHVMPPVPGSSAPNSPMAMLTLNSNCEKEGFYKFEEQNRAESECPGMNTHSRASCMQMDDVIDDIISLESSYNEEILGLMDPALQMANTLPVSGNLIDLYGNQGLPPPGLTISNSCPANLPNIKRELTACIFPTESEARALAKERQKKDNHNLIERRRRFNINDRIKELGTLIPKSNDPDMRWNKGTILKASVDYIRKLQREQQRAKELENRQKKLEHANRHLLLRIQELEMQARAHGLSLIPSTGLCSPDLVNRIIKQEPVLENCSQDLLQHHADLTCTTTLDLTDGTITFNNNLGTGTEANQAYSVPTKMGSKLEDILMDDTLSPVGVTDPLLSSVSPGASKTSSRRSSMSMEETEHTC
Briefly: TRPM1 promoter luciferase signal decrease, dose response, MITF inhibitor project, cell-based, SK-MEL-5, cherry-picked, set 3 (AID 493073).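 Further: SK-MEL-5 melanoma cells with luciferase driven by the MITF target TRPM1 promoter.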 The format is functional.

Assay [7] has as its target T3, X-box-binding protein 1 (Homo sapiens, UniProt P17861).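 Further: confirmatory dose-response counter-screen serving a CHOP assay.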
T3 sequence (P17861 whole entry): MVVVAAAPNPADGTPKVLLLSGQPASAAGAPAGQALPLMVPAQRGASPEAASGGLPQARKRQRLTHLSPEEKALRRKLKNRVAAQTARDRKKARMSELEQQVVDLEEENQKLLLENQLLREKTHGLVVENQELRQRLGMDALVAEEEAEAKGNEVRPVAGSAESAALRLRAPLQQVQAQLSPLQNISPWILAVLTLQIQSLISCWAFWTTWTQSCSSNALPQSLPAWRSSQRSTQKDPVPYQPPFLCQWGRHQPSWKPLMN
The format is functional, Cricetulus griseus.

A short description of assay [8]: Shn3 3'UTR reporter inhibitors, dose response, cell-based, Clone20 osteoblasts, firefly luciferase, cherry-picked (AID 624132).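 Further: firefly luciferase luminescence from reporter carrying the Shn3 3'UTR in osteoblasts.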 The class given is functional.
Assay [9] is described as follows: HepG2 cell cytotoxicity, dose response, cytotoxicity control for Shn3 inhibitor project, CellTiter-Glo, cherry-picked (AID 624134). The format is functional, cell-based. Background: In ATP-based viability assays light output follows the ATP content of the culture.
Assay [10] is described as follows: control 3'UTR Renilla luciferase suppression, dose response, counter-screen for Shn3 inhibitor project, cell-based, Clone20-Shn3RL, cherry-picked (AID 624133). The format is functional.
The target of assay [11] is SUMO-activating enzyme (Homo sapiens, UniProt Q9UBT2). Briefly: SUMOylation inhibitor hit validation, confirmation, SUMOylation inhibitor project, biochemical, AlphaScreen (AID 2018). The format is functional. For orientation: Alpha assays give light when donor and acceptor beads are brought close together.
The target of assay [12] is T4, Short transient receptor potential channel 4 (Mus musculus, UniProt Q9QUQ5).
T4 sequence (Q9QUQ5 whole entry): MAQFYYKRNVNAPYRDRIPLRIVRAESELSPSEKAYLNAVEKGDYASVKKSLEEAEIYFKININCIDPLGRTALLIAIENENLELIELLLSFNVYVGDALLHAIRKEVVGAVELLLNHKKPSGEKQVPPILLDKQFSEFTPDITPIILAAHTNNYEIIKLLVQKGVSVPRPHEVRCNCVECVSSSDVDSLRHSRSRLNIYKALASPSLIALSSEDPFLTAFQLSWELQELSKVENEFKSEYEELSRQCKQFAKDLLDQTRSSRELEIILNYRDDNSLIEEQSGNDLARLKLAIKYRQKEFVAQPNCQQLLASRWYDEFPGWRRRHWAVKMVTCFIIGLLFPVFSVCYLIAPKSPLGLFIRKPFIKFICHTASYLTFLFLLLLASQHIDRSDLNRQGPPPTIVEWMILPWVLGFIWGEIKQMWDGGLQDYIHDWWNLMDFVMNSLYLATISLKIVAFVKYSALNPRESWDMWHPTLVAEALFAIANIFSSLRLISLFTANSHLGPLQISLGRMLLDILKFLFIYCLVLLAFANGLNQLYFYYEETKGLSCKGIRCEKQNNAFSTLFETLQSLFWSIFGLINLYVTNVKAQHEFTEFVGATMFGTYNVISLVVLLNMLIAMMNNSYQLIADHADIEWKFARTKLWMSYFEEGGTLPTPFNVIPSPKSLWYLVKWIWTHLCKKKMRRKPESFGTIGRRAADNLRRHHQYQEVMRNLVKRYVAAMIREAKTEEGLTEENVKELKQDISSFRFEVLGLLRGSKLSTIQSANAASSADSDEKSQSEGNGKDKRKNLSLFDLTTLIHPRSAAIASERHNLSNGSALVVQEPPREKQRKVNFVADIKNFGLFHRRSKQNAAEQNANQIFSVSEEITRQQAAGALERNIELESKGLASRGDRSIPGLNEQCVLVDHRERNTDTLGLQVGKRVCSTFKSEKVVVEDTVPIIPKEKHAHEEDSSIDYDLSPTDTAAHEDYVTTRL
Briefly: mouse TRPC4 channel activators, dose response, cell-based, HEK293 TRPC4/mu-opioid, Fluo-4 calcium (AID 434937). The class given is functional.

A short description of assay [13]: cells. The class given is functional, cell-based.
The nature of assay [14]: cells. The class given is functional, cell-based. The source holds these as a separate data set.
Assay [15] addresses Prothrombin (Homo sapiens, UniProt P00734). Briefly: Thrombin 1536 HTS Dose Response Confirmation. [Related pubchem assays: 1046 (Thrombin 1536 HTS; hits were confirmed in this assay)]. The class given is functional.
Assay [16] concerns the target T5, Fatty acid synthase (Homo sapiens, UniProt P49327). Briefly: FAS thioesterase domain inhibitors, dose response, biochemical, endpoint fluorescence intensity, uHTS hits (AID 624327).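 Further: fluorescence from hydrolysis of an O-methyl fluorescein acyl ester substrate by the enzyme.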 The format is functional.
Assay [17] deals with T5, Fatty acid synthase. Briefly: FAS thioesterase domain inhibitors, dose response, biochemical, kinetic fluorescence intensity (AID 624326).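 Further: rate of fluorescence rise from hydrolysis of a fluorogenic O-methyl fluorescein ester substrate.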 The class given is functional.
A short description of assay [18]: Counterscreen for IDE inhibitors: Luminescence-based cell-based high throughput dose response assay to identify compounds that are cytotoxic to HEK cells. [Related pubchem assays: 434962 (Primary screen (IDE inhibitors in singlicate)), 449730 (Counterscreen (Cytotoxicity in triplicate)), 435028 (Confirmation (IDE inhibitors in triplicate)) …. The format is functional. The conditions noted are these: HEK293.

The target of assay [19] is T6, Insulin-degrading enzyme (Homo sapiens, UniProt P14735).
T6 sequence (P14735 whole entry): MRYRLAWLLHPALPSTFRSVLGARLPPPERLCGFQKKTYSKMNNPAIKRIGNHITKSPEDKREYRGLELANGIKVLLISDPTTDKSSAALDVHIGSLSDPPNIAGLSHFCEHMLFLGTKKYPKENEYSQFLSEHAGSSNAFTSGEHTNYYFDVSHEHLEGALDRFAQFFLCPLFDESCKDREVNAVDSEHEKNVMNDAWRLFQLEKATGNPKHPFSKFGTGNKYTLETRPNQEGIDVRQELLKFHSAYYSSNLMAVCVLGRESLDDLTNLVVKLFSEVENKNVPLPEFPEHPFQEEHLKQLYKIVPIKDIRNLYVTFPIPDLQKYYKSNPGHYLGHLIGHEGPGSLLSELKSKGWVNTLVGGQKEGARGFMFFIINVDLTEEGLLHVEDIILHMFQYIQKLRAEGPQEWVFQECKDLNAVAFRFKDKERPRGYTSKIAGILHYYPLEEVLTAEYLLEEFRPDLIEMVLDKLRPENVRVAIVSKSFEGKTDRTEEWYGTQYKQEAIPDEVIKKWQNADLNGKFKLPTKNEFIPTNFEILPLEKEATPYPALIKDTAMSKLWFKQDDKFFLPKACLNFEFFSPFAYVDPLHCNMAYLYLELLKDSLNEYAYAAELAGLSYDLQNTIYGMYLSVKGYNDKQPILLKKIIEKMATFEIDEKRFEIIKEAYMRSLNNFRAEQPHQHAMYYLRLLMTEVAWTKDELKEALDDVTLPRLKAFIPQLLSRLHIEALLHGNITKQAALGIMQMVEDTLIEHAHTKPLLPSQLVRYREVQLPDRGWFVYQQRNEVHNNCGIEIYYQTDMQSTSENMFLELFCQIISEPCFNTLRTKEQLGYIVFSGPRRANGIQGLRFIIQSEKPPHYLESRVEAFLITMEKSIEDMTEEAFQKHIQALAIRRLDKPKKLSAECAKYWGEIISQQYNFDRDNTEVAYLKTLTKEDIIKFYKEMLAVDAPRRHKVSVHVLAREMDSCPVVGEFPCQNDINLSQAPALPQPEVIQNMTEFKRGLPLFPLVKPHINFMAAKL
Description: Dose Response: Fluorescence polarization-based cell-based high throughput dose response assay for inhibitors of insulin-degrading enzyme (IDE). [Related pubchem assays: 434962 (Primary screen (IDE inhibitors in singlicate)), 449730 (Counterscreen (Cytotoxicity in triplicate)), 435028 (Confirmation (IDE inhibitors in triplicate)), 434984 (Summary …. The class given is functional. For orientation: In fluorescence polarisation assays a small probe gives low polarisation when free and higher when bound to something large.

Assay [20] deals with Protein-tyrosine kinase 2-beta (Homo sapiens, UniProt Q14289).
Assay [21] concerns the target Major prion protein (Homo sapiens, UniProt P04156). The class given is functional, cell-based.
A short description of assay [22]: cells.
Assay [23] deals with Intestinal-type alkaline phosphatase (Homo sapiens, UniProt P09923). Briefly: human intestinal alkaline phosphatase activators, dose response, biochemical, luminescence, uHTS hits (AID 463120). The format is functional.

Take `O=C1c2ccccc2C(=O)N1c1nnc(CCc2ccccc2)[nH]1`: the IC50 (as a rule, the concentration needed to halve the response being measured) in assay [1] is > 100 µM (not active); in [2], 66.5 µM (active).

`CC(=O)OCCCNc1cc(Sc2ccc(Cl)cc2)c2nonc2c1[N+](=O)[O-]`: the values for the EC50 in assay [3] and in [4] were 13.1 µM (active) and 11.3 µM (active), respectively. In addition, the AC50 (usually the concentration giving half of the maximal activity seen) in [5] is 4.57 µM (active); in [6] it was 10.9 µM (active); in assay [8], 1.14 µM (active); in assay [9], 43.7 µM (active); in assay [10] it was 7.64 µM (active). Moreover, in [7], the “Absolute IC50 (XBP1)” value worked out at 10 µM.

With `N#C/C(=C(/O)c1ccc(S(=O)(=O)N(CCCl)CCCl)cc1)c1nc2ccccc2[nH]1`, in assay [11], the IC50 is 73.8 µM (active).

As to `CNCC(=O)N1CCN(c2ncc(C(F)(F)F)cc2Cl)CC1`, the EC50 (as a rule, the concentration that produces a half-maximal response) in [12] was 0.105 µM (active).

For the compound `O=C(C1CCCN(Cc2ccccc2F)C1)N1CCc2ccccc2C1` (centres undefined), the EC50 is > 350 µM (not active) in [13], > 350 µM (not active) in assay [14] and 0.299 µM (active) in [12].

Consider `CCn1cc(C(=O)NCc2ccco2)c(=O)c2cc(S(=O)(=O)N3CCCCCC3)ccc21`, for which the IC50 in [15] was 14.7 µM (active); in assay [16], 2.96 µM (active); in [17], 2.32 µM (active).

With `Cc1ccc(C(C(=O)NC2CCCCC2)N(C(=O)Cc2c[nH]c3ccccc23)c2ccccc2C)o1` (centres undefined), the “Absolute IC50 (XBP1)” value in assay [7] was 10 µM.

As to `CCCC(=O)Nc1ccc2oc(-c3cncc(Br)c3)nc2c1`, the IC50 in [11] was 90.5 µM (active).

In the case of `O=C(O)CC12CC3CC(C1)CC(n1ncc(NCc4ccccc4Cl)c(Cl)c1=O)(C3)C2`, the IC50 in assay [18] is > 55.7 µM (not active); in assay [19], 9.59 µM (active).

Consider `CC(=N)/C(C#N)=C(/O)CSc1nc2cc(Cl)ccc2s1`, for which the IC50 in assay [15] was > 50 µM (not active).

On to `COc1cc(/C=C2\SC(=S)N(NC(C)=O)C2=O)ccc1OC(=O)c1ccco1`, for which the IC50 in assay [18] was > 55.7 µM (not active); in assay [19], 5.78 µM (active).

In the case of `CCOC(=O)CSc1nc(C(C)C)nc2ccccc12`, the IC50 in [20] was > 69.5 µM (not active); in [21] it was 1.08 µM (active); in [22], > 138 µM (inactive).

As to `Cc1ccc(O)c(N/C=C/C(=O)c2ccc(F)cc2)c1`, the EC50 in [23] is > 100 µM (inactive).
